{
  "source": "patent US8242251B2",
  "about": "“Unsymmetrical cyanine dimer compounds and their application” (Life Technologies Corporation, priority 2003, dated 2012)",
  "key": {"RNA versus DNA": {"system": "RNA versus DNA", "experiment": "Screening of fluorescence properties and relative fluorescence enhancement with RNA versus DNA (Table 3)", "format": "binding", "details": "fluorescence enhancement when associated with RNA to that when associated with DNA"}, "[1]": {"system": "HeLa human cervical cancer cells", "experiment": "Nucleic acid binding in live eukaryotic cells, HeLa (Example 41)", "format": "cell-based", "method": "(§1) Bovine pulmonary arterial endothelial (BPEA) cells and HeLa human cervical cancer cells were grown in media for one day after plating on coverslips. Cells were labeled with 1 μM or 10 μM of Compound 21 for HeLa cells, or 10 μM in BPAE cells, in media at 37° C. for 20 minutes, then rinsed twice and mounted in warm medium. Coverslips were examined on a Nikon Eclipse 800 upright fluorescent microscope and imaged with a far red filter set, a Princeton Instruments MicroMax cooled CCD camera, and Universal Imaging MetaMorph imaging software."}, "[2]": {"system": "Bovine pulmonary arterial endothelial (BPEA) cells", "experiment": "Nucleic acid binding in live eukaryotic cells, BPAE (Example 41)", "format": "cell-based", "details": "10 μM", "method": "as §1"}},
  "note": "Entries after “also recorded” stand apart in the source; their conditions may differ.",
  "data": [
    {"compound": "C[n+]1c(/C=C2\\C=C(N3CCN(C4=C/C(=C\\c5oc6ccccc6[n+]5C)c5ccccc5N4c4ccccc4)CC3)N(c3ccccc3)c3ccccc32)oc2ccccc21.[Cl-].[Cl-]", "note": "[Compound 20]", "values": [
      {"measurement": "Fluorescence Enhancement Ratio (RNA/DNA)", "setting": "RNA versus DNA", "result": 8.5},
      {"measurement": "selective detection of RNA in live cells", "setting": "[1]", "result": "did not demonstrate selective detection of RNA in live cells"},
      {"measurement": "labeling pattern in HeLa cells", "setting": "[1]; 1 μM or 10 μM, far red filter set", "result": "mitochondrial labeling, with stronger punctate spots within the mitochondria, typical of mitochondrial DNA staining; also recorded: very dim nucleolar labeling"},
      {"measurement": "cell permeability in live cells", "setting": "[1]; 20 minutes 37° C.", "result": "cell permeable"},
      {"measurement": "labeling pattern in BPAE cells", "setting": "[2]", "result": "no specific labeling evident, and much higher off-cell background"}
    ]}
  ]
}
